These are literature values, as cited in patent publication US20230056788A1, “METHODS AND COMPOSITIONS FOR THE INHIBITION OF HEPATITIS B AND HEPATITIS D VIRUS INFECTIONS” (priority 2020, published 2023).

Series [1] relates to HBV. The following applies: HBeAg positive and negative chronic infection and HBV/HDV co-infection.
Series [2] concerns HBV.

In the oligonucleotide strings, read from the 5' end, every base follows the letter of its sugar. An asterisk marks phosphorothioate; unmarked linkages are phosphodiester. Other units and linkages are bracketed, terminal groups are in braces. A string of capitals states the bases alone. [5mC] = 5-methylcytosine; m = 2'-O-methyl

Regarding “(2′OMeA, 2′OMe-5-MeC)20 (mA*m[5mC]*mA*m[5mC]*mA*m[5mC]*mA*m[5mC]*mA*m[5mC]*mA*m[5mC]*mA*m[5mC]*mA*m[5mC]*mA*m[5mC]*mA*m[5mC]*mA*m[5mC]*mA*m[5mC]*mA*m[5mC]*mA*m[5mC]*mA*m[5mC]*mA*m[5mC]*mA*m[5mC]*mA*m[5mC]*mA*m[5mC]*mA*m[5mC]; further chemistry not fully specified) [REP 2139]”, in series [1], the “activity against infections with multiple HBV genotypes” value is reported as “potently active”.
Regarding “(2′OMeA, 2′OMe-5-MeC)20 (mAm[5mC]mAm[5mC]mAm[5mC]mAm[5mC]mAm[5mC]mAm[5mC]mAm[5mC]mAm[5mC]mAm[5mC]mAm[5mC]mAm[5mC]mAm[5mC]mAm[5mC]mAm[5mC]mAm[5mC]mAm[5mC]mAm[5mC]mAm[5mC]mAm[5mC]mAm[5mC]; further chemistry not fully specified) [REP 2147, non phosphorothioated (phosphodiester) counterpart of REP 2139]”, the antiviral activity entry in series [2] is “inactive”.
Consider “(2′OMeA, 2′OMe-5-MeC)10 (mA*m[5mC]*mA*m[5mC]*mA*m[5mC]*mA*m[5mC]*mA*m[5mC]*mA*m[5mC]*mA*m[5mC]*mA*m[5mC]*mA*m[5mC]*mA*m[5mC]; further chemistry not fully specified) [REP 2179, phosphorothioate 20mer counterpart of REP 2139]”, for which, in series [2], the antiviral activity entry was “(hydrophobic, inactive”.
